From PMC8622623, “Histamine H3 Receptor Ligands—KSK-59 and KSK-73—Reduce Body Weight Gain in a Rat Model of Excessive Eating” (Pharmaceuticals, 2021)
“Also recorded” adds a separate entry of the source.

Tests used:
[1] = test system: non-obese rats fed palatable diet; assay: Intraperitoneal glucose tolerance test after 28 administrations; type: in vivo, female Wistar rats; details: for blood glucose levels at 30 or/and 60 min after glucose load: KSK compounds 10 mg/kg b.w. or bupropion/naltrexone, glucose 1 g/kg i.p., vs control fed palatable feed; for AUC of IPGTT: vs control rats fed high-calorie feed
Description: The test was performed on the 29th day of the experiment. After twenty-eight administrations of the test compounds, food was discontinued for 20 h and then glucose tolerance was tested. Glucose (1 g/kg b.w.) was administrated i.p.. […] The area under the curve (AUC) was calculated using the trapezoidal rule.

[2] = test system: non-obese rats fed palatable diet; assay: Plasma lipids, hormones, corticosterone, CRP and IL-6 at end of chronic experiment; type: in vivo, female Wistar rats; details: for plasma triglyceride levels: day 31, palatable feed + treatment, compared to rats fed standard feed
Description: On the 31st day of the experiment, 20 min after i.p. administration of heparin (5000 units/rat) and thiopental (70 mg/kg b.w.), blood was collected from the left carotid artery and then centrifuged at 600× g (15 min, 4 °C) in order to obtain the plasma. To determine total cholesterol, HDL-cholesterol, LDL-cholesterol or triglyceride levels in plasma, standard enzymatic and spectrophotometric tests (Biomaxima S.A. Lublin, Poland) were used. The ELISA Kit (Cayman Chemical, USA) assay was used to determine corticosterone levels in plasma. To determine IL-6, ghrelin, adiponectin, leptin and C-reactive protein levels in plasma, standard ELISA Kit (Bioassay Technology Laboratory, Shanghai, China) was used.

H3 histamine receptor = target: T1, H3 histamine receptor (Homo sapiens, UniProt Q9Y5N1); assay: Aequoscreen intrinsic activity assay (antagonist dose-response); type: cell-based
T1 construct: host or cells: recombinant frozen ready-to-use cells
Description: Intrinsic activity studies were performed by two methods, Aequoscreen and Lance cAMP assays according to the manufacturer of the ready to use cells with stable expression of the H3 histamine receptor (Perkin Elmer, Waltham, MA, USA).
The Aequoscreen technology uses the recombinant cell lines with stable co-expression of apoaequorin and a GPCR as a system to detect activation of the receptor, following addition of an agonist, via the measurement of light emission. For measurement cells (frozen, ready to use) were thawed and resuspended in 10 mL of an assay buffer containing 5 μM of coelenterazine h. Then cells suspension was placed in a 10 mL Falcon tube, fixed onto a rotating wheel and incubated overnight at RT° in the dark. Cells were diluted with assay buffer to 5000 cells/20 µL. Agonistic ligands 2× (50 μL/well), diluted in assay buffer, were prepared in 1/2 area white polystyrene plates, and the 50 μL of cell suspension was dispensed on the ligands using the injector. The light emission was recorded for 20 s. Cells were incubated with antagonist for 15 min at RT°. Then 50 µL of agonist (3 × EC80 final concentration) was injected onto the mixture of cells and antagonist and the light emission was recorded for 20 s.

[3] = test system: non-obese rats fed palatable diet; assay: Model of excessive eating: body weight, calorie intake, fat pads; type: in vivo, female Wistar rats; details: for body weight gain: i.p. daily 28 days, vs palatable diet + vehicle; for caloric intake over the 28 days: i.p., KSK compounds 10 mg/kg b.w. or bupropion/naltrexone
Description: Female Wistar rats were housed in pairs. […] The water was available ad libitum. Palatable control group (palatable diet + vehicle) received vehicle (1% Tween 80, i.p.), while palatable test groups (palatable diet + compound) were injected i.p. tested compounds at the dose of 10 or 1 mg/kg b.w./day suspended in 1% Tween 80 or the reference compound bupropion/naltrexon. The combination of bupropion at a dose of 20 mg/kg b.w./day and naltrexone at a dose of 1 mg/kg b.w./day was also suspended in 1% Tween 80 and administered i.p. Weight was evaluated daily. Calorie intake was evaluated ones per week. On the 31st day, 20 min after i.p. administration of heparin (5000 units/rat) and thiopental (70 mg/kg b.w.), animals were sacrificed and peritoneal fat pads were collected (Figure 11).
Palatable diet contained: 100 g peanuts—612 kcal; 100 mL condensed milk—131 kcal; 100 g milk chocolate—529 kcal; 100 g cheese—325 kcal. Standard diet contained 100 g feed—280 kcal.

[4] = palatable feed, KSK compounds 10 mg/kg b.w. or bupropion/naltrexone combination
[5] = palatable feed, vs palatable feed + vehicle

T1 sequence (Q9Y5N1 whole entry): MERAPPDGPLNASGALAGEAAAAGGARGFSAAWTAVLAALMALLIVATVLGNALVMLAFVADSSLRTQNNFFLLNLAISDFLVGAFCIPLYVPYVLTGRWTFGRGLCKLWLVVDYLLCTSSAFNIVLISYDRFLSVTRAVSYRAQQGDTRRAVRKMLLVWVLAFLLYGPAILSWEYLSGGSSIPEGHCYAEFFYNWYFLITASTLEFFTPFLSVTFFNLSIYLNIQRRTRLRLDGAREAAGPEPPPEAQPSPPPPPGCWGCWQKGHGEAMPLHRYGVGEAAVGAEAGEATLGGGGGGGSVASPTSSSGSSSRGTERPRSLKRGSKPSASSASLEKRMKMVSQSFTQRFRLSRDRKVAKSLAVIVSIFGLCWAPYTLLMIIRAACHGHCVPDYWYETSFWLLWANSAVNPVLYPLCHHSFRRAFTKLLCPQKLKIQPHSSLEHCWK

In the case of CC(=O)c1ccc(OCCCCCCN2CCN(c3ccncc3)CC2)cc1.O=C(O)C(=O)O [KSK-59, 1-(4-((6-(4-(pyridin-4-yl)piperazin-1-yl)hexyl)oxy)phenyl)ethan-1-one oxalate], the “blood glucose levels at 30 or/and 60 min after glucose load” value [1] is reported as “significantly lower”, the “AUC of IPGTT” value [1] is reported as “statistically significantly decreased” and the plasma triglyceride levels [2] is reported as “statistically significantly higher”. The plasma adiponectin level ([2]; day 31, vs control rats fed palatable feed) was “Significantly lower level of adiponectin”, the IC50 (H3 histamine receptor) was 3.31 ± 3.2 nM and the body weight gain ([3]; palatable feed, 1 mg/kg b.w.) was “did not significantly affect weight gain”. The body weight gain [3, 4] was “gained less weight than the control group fed palatable diet” and the “caloric intake over the 28 days” value [3, 5] was “comparable to the amount consumed by the control rats”.
In the case of CC(=O)c1ccc(OCCCCCCCCN2CCN(c3ccncc3)CC2)cc1.O=C(O)C(=O)O [KSK-73, 1-(4-((8-(4-(pyridin-4-yl)piperazin-1-yl)octyl)oxy)phenyl)ethan-1-one oxalate], the “blood glucose levels at 30 or/and 60 min after glucose load” value [1] is reported as “significantly lower”, the “AUC of IPGTT” value [1] is reported as “statistically significantly decreased” and the plasma triglyceride levels [2] is reported as “comparable to the ones observed in rats from the control group fed standard feed”. The IC50 (H3 histamine receptor) was 20.6 ± 4.5 nM, the “fat pads in the peritoneal cavity” value ([3]; end of experiment, vs palatable feed + vehicle) was “Significantly fewer fat pads” and the “body weight after the first administration” value ([3]; palatable feed, i.p. 10 mg/kg b.w., 10 mg/kg) was “slowed down the rats’ body weight gain already after the first administration; also recorded: weight loss after the first administration”. The body weight gain ([3]; palatable feed, 1 mg/kg b.w.) was “caused significantly greater weight gain”, the body weight gain [3, 4] was “gained less weight than the control group fed palatable diet” and the “caloric intake over the 28 days” value [3, 5] was “significantly reduced animals caloric intake”.
